# US20160089471A1, “SHEET FOR CUTANEOUS APPLICATION CONTAINING VITAMIN E OR AN ESTER THEREOF” (BIO.LO.GA. S.R.L., priority 2013, published 2016)
# Columns and labels:
# [1] = system: reconstituted human epidermis Epi-200 EpiDerm™; experiment: Release of IL-1α in the culture medium (ELISA); settings: 18-hour treatment; Tukey Kramer Multiple Comparisons Test
# Source text: Further information for better defining the irritation potential was obtained from subsequent measurement of the following parameters: • evaluation of the release, in the culture medium, of the lactate dehydrogenase (LDH), a cytoplasmic enzyme, release of which indicates loss of integrity of the cellular membrane; • evaluation of the release, in the culture medium, of pro-inflammatory cytokine by means of ELISA (Enzyme Linked Immunosorbent Assay).
# Tissue used: EPI-200-SIT EpiDerm™
# Culture medium: EPI-100-MM-HCF-60
# (§1) Incubation conditions: +37° C. in a 5% CO2 atmosphere
# (§2) Treatment with the sample: • continuous contact and incubation for 18 hours (single) • continuous contact and incubation for 7 days (double)
# (§3) Application was carried out by applying about 1 cm^2 of sample (i.e. of the sheet according to the invention obtained as per the example given above) per insert.
# Controls Performed for the First Evaluation (18 hours): • Negative control after 18 hours: inserts not treated • Positive control: inserts treated with 0.5% SDS (Sodium Dodecylsulphate) in sterile water during 18 hours of incubation; […]
# Evaluation in the culture medium obtained after the period of incubation of the sample with EPI-200. The release is measured by means of specific ELISA.
# [2] = system: reconstituted human epidermis Epi-200 EpiDerm™; experiment: Cytotoxicity by release of lactate dehydrogenase (LDH) in the culture medium; settings: 18-hour treatment; Tukey Kramer Multiple Comparisons Test
# Procedure: Tissue used: EPI-200-SIT EpiDerm™
# Culture medium: EPI-100-MM-HCF-60
# as §1, §2, §3
# (§4) Controls Performed for the First Evaluation (18 hours): • Negative control after 18 hours: inserts not treated • Positive control: inserts treated with 0.5% SDS (Sodium Dodecylsulphate) in sterile water during 18 hours of incubation;
# (§5) Controls Performed for the 7-Day Evaluation: • Negative control: inserts not treated with the sample and kept for 7 days in the same incubation conditions as those treated with the sample.
# Evaluation of the Cytotoxicity by Means of Measurement of the Release of the Lactate Dehydrogenase (LDH) in the Culture Medium:
# Evaluation in the culture medium obtained after the incubation period of the sample with the epidermis model. The culture medium is incubated with a specific reagent so as to allow quantitive determination of the lactate dehydrogenase at 490 nm.
# [3] = system: reconstituted human epidermis Epi-200 EpiDerm™; experiment: Cellular vitality by MTT assay on reconstituted epidermis (EpiDerm Skin Irritation Test, cumulative irritation); settings: 18-hour treatment
# Procedure: The assay in question was based on the In vitro Epiderm™ Skin Irritation Test (EPI-200-SIT) developed by the MatTek Corporation, which uses the model of reconstituted human epidermis Epi-200 EpiDerm™.
# The assay consists in topical application of the material under testing on the reconstituted epidermis for contact times equal to or greater than 18 hours. The irritation potential is determined by means of evaluation of the cellular vitality using the MTT assay.
# Tissue used: EPI-200-SIT EpiDerm™
# Culture medium: EPI-100-MM-HCF-60
# as §1, §2, §4, §5
# MTT assay: colorimetric determination of the vitality of the keratinocytes of the insert based on the reduction of the yellow tetrazolium salts (MTT) to blue formazan by mitochondrial dehydrogenases.
# continuous stimulation (overnight contact and incubation)
compound,measurement,setting,value
"CCCCCCCCCCCCOS(=O)(=O)[O-].[Na+] [Positive control, Sodium Dodecylsulphate]",Statistical comparison of IL-1α release in relation to the negative control,[1],*** (*** p < 0.001 extremely significant variation)
same,Statistical comparison of LDH release in relation to the negative control,[2],*** (*** p < 0.001 extremely significant variation)
same,Average value of OD ± SD,[3]; continuous contact,0.185 ± 0.004
same,Average value of the % vitality,[3]; relative to negative control = 100%,8.40 ± 0.17%
